Like-named read-outs stand apart in the source and are kept apart here.
Key:
[1] = in vivo; settings: female, F1 CBAxC57B1 hybrids, mouse, iv, total radioactivity
Experimental: (§1) In vivo experiments were conducted using laboratory female mice (F1 CBAxC57B1 hybrids, 18-20g). The animals were obtained from the brooder of the Biomedical Technology Research Centre at the Russian Academy of Medical Sciences in Andreevka. Pigmented B16 mice melanoma was tangled. B16 melanoma cells suspension was administered SC in aseptic conditions. Tumour growth was investigated visually. The animals were enrolled into the experiment 9-12 days after the inoculation, when the tumour diameter was 8-12cm.
(§2) During the experiment the animals were housed in standard conditions (special room, recommended food, free access to fresh water, natural lighting).
(§3) Urinary bladder filling was achieved by suturing the outer urethral orifice. The radioactivity in the sampled organs and tissues was measured by the direct radiometry method. 5 experiments were conducted, at least 3 animals were used for each experimental point.

[2] = potency distribution in mice with tangled B16 melanoma after IV administration (direct radiometry of organs and tissues); settings: female, F1 CBAxC57B1 hybrids, mouse, tumour and muscle, iv, total radioactivity
Experimental: as §1, §2, §3

[3] = system: B16 melanoma; assay: as above; settings: for Urinary bladder: full urinary bladder; for Blood: mice with B16 melanoma
Experimental: as §1, §2, §3

[4] = system: B16 melanoma; settings: mouse, in vivo
Experimental: as §1, §2, §3

Compound | Kidneys ([3]; 30 min after IV administration) | Liver ([3]; 30 min after IV administration) | Muscle ([3]; 30 min after IV administration) | Tumour ([3]; 30 min after IV administration) | Blood ([3]; 30 min after IV administration) | Kidneys ([3]; 60 min after IV administration) | Liver ([3]; 60 min after IV administration) | Muscle ([3]; 60 min after IV administration) | Tumour ([3]; 60 min after IV administration) | Blood ([3]; 60 min after IV administration) | also measured
C[C@@H](O)[C@H](NC(=O)[C@@H]1CSSC[C@H](NC(=O)[C@H](CCCCN)NC(=O)CN2CCN(CC(=O)O)CCN(CC(=O)O)CCN(CC(=O)O)CC2)C(=O)N[C@@H](Cc2ccc(O)cc2)C(=O)N[C@H](Cc2c[nH]c3ccccc23)C(=O)N[C@@H](CCCCN)C(=O)N[C@@H]([C@@H](C)O)C(=O)N1)C(=O)O [1a, marked ^68Ga, metal not drawn] |  |  |  |  |  |  |  |  |  |  | tissue to tissue ratio at 0.5 h [1]: 2.4
C[C@@H](O)[C@H](NC(=O)[C@@H]1CSSC[C@H](NC(=O)[C@@H](N)CCCCNC(=O)CN2CCN(CC(=O)O)CCN(CC(=O)O)CCN(CC(=O)O)CC2)C(=O)N[C@@H](Cc2ccc(O)cc2)C(=O)N[C@H](Cc2c[nH]c3ccccc23)C(=O)N[C@@H](CCCCN)C(=O)N[C@@H]([C@@H](C)O)C(=O)N1)C(=O)O [1b, marked ^68Ga, metal not drawn] | 3.4 ± 0.3 % of the administered dose | 1.8 ± 0.7 % of the administered dose | 0.6 ± 0.1 %/g | 2.5 ± 0.7 %/g | 2.4 ± 0.4 % of the administered dose | 5.4 ± 0.6 % of the administered dose | 1.1 ± 0.1 % of the administered dose | 0.06 ± 0.01 %/g | 1.2 ± 0.2 %/g | 0.5 ± 0.07 % of the administered dose | tissue to tissue ratio at 0.5 h [2]: 4.2; Urinary bladder ([3]; 30 min after IV administration): 53.4 ± 7.7 % of the administered dose; Urinary bladder ([3]; 60 min after IV administration): 35.5 ± 3.1 % of the administered dose
C[C@@H](O)[C@H](NC(=O)[C@@H]1CSSC[C@H](NC(=O)[C@H](CCCCN)NC(=O)CN2CCN(CC(=O)O)CCN(CC(=O)O)CCN(CC(=O)O)CC2)C(=O)N[C@@H](Cc2ccc(O)cc2)C(=O)N[C@H](Cc2c[nH]c3ccccc23)C(=O)N[C@@H](CCCCN)C(=O)N[C@@H]([C@@H](C)O)C(=O)N1)C(=O)O [Compound 1a] |  |  |  |  |  |  |  |  |  |  | accumulation in tumour as compared to ^68Ga-marked DE [4]: larger; blood clearance as compared to ^68Ga-marked DE [4]: faster blood clearance; renal clearance as compared to ^68Ga-marked DE [4]: faster renal clearance; tissue to tissue ratio at 1 h [1]: 7.5
C[C@@H](O)[C@H](NC(=O)[C@@H]1CSSC[C@H](NC(=O)[C@@H](N)CCCCNC(=O)CN2CCN(CC(=O)O)CCN(CC(=O)O)CCN(CC(=O)O)CC2)C(=O)N[C@@H](Cc2ccc(O)cc2)C(=O)N[C@H](Cc2c[nH]c3ccccc23)C(=O)N[C@@H](CCCCN)C(=O)N[C@@H]([C@@H](C)O)C(=O)N1)C(=O)O [Compound 1b] |  |  |  |  |  |  |  |  |  |  | tissue to tissue ratio at 1 h [2]: 20; accumulation in tumour as compared to ^68Ga-marked comparison substance ([3]; 60 min after administration, fold higher than DE): 2.4 times; accumulation in tumour as compared to ^68Ga-marked DE ([3]; ^68Ga-marked, in words): larger; blood clearance as compared to ^68Ga-marked DE ([3]; ^68Ga-marked, in words): faster blood clearance; renal clearance as compared to ^68Ga-marked DE ([3]; ^68Ga-marked, in words): faster renal clearance; ratio of accumulation in tumour and muscle as compared to DE ([3]; both in 30 and in 60 minutes after administration, in words): higher
C[C@@H](O)[C@H](NC(=O)[C@@H]1CSSC[C@H](NC(=O)[C@@H](Cc2ccccc2)NC(=O)CN2CCN(CC(=O)O)CCN(CC(=O)O)CCN(CC(=O)O)CC2)C(=O)N[C@@H](Cc2ccc(O)cc2)C(=O)N[C@H](Cc2c[nH]c3ccccc23)C(=O)N[C@@H](CCCCN)C(=O)N[C@@H]([C@@H](C)O)C(=O)N1)C(=O)O [DE, marked ^68Ga, metal not drawn, reference compound] | 1.6 ± 0.6 % of the administered dose | 2.8 ± 1.5 % of the administered dose | 0.6 ± 0.04 %/g | 1.0 ± 0.2 %/g | 2.6 ± 0.5 % of the administered dose | 1.6 ± 0.6 % of the administered dose | 2.8 ± 0.5 % of the administered dose | 0.5 ± 0.04 %/g | 0.5 ± 0.24 %/g | 2.6 ± 0.6 % of the administered dose | 
